Holding throughout (test): SelectScreen Z'LYTE kinase profiling
Common to all, as to type: biochemical
Common to all, as to conditions: ATP at apparent KM

For one assay, the target named is T1, PRKD2 (PKD2) (Homo sapiens, UniProt Q9BZL6).
T1 sequence (Q9BZL6 1-878): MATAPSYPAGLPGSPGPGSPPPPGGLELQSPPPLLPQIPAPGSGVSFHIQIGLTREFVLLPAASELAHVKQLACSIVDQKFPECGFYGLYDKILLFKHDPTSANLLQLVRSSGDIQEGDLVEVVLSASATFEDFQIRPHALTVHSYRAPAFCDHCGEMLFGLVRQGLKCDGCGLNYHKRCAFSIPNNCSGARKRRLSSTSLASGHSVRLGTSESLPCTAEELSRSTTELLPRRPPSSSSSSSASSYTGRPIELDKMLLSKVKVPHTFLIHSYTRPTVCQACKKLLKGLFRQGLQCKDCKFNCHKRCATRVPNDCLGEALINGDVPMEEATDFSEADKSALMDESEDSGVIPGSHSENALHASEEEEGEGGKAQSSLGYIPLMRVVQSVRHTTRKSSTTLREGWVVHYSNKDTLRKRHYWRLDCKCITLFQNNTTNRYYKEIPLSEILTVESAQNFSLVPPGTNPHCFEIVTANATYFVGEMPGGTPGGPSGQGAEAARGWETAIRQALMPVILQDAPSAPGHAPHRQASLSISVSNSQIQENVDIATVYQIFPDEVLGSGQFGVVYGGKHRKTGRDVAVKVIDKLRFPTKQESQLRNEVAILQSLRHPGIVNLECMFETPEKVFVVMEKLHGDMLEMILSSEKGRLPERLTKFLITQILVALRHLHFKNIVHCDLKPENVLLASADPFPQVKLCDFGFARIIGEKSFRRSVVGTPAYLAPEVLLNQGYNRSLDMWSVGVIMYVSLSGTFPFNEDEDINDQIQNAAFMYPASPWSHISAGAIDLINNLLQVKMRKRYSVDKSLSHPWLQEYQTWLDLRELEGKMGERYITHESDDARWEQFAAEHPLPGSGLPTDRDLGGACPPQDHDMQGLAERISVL

A further assay addresses T2, PRKCN (PKD3) (Homo sapiens, UniProt O94806).
T2 sequence (O94806 1-890): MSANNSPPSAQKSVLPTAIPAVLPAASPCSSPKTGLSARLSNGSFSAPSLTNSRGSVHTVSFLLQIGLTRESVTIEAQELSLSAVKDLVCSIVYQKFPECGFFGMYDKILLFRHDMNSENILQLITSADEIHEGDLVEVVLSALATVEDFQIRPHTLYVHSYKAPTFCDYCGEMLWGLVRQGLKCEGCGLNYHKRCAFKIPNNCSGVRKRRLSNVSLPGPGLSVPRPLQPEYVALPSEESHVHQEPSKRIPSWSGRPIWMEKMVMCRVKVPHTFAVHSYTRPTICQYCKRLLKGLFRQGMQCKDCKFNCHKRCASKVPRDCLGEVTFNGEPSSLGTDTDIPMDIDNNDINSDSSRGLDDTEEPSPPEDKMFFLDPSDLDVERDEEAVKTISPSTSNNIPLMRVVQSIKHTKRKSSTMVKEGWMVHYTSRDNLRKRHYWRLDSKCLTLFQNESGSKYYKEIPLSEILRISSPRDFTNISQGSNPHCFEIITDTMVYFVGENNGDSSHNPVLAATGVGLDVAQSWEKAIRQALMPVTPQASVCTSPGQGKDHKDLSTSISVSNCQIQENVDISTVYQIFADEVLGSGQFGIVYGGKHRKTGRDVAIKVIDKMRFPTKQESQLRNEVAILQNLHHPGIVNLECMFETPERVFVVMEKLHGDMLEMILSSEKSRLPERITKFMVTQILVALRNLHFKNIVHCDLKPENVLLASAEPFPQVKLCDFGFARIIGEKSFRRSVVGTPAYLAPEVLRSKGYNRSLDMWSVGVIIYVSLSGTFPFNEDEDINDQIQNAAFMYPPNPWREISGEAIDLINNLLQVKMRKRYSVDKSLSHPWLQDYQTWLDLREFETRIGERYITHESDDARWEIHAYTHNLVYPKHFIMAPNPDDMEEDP

Another assay addresses BTK (Homo sapiens, UniProt Q06187).
A further assay concerns the target T3, ITK (Homo sapiens, UniProt Q08881).
T3 sequence (Q08881 1-620): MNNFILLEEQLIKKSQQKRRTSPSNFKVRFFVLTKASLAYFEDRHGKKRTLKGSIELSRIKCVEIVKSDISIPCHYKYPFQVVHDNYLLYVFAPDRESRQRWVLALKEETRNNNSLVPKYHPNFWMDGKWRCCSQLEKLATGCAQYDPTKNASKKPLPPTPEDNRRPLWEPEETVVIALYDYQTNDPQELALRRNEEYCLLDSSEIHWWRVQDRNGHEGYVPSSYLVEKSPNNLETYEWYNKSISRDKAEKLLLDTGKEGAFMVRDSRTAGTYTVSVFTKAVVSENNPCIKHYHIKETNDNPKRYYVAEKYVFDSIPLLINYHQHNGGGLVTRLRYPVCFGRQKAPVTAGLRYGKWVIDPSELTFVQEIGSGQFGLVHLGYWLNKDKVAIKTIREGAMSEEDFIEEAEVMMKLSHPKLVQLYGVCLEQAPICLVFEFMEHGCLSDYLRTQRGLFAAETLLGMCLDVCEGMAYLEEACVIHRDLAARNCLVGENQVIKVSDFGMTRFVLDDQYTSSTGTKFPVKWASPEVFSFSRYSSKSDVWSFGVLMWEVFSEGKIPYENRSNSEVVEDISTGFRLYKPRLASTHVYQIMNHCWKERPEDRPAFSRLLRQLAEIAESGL

The next assay has as its target T4, PRKCI (PKC iota) (Homo sapiens, UniProt P41743).
T4 sequence (P41743 1-596): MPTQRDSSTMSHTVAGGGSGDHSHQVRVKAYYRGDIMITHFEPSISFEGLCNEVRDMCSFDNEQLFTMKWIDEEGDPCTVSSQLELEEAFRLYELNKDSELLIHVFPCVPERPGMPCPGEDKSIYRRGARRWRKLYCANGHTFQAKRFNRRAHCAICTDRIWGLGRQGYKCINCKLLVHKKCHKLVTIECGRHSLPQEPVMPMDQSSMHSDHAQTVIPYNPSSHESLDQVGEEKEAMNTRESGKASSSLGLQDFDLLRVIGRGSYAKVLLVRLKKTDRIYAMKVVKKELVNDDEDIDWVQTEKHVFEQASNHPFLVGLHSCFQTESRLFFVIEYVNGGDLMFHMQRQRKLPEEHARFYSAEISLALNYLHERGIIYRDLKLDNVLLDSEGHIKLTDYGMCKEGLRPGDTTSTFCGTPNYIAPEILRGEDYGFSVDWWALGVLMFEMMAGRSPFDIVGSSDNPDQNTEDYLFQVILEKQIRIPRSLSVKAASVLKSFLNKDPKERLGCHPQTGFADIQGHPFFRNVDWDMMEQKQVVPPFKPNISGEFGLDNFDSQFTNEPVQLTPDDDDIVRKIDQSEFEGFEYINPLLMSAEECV

The term inhibition denotes the relative decrease from the control value, in per cent.

BTK, sequence (Q06187 whole entry): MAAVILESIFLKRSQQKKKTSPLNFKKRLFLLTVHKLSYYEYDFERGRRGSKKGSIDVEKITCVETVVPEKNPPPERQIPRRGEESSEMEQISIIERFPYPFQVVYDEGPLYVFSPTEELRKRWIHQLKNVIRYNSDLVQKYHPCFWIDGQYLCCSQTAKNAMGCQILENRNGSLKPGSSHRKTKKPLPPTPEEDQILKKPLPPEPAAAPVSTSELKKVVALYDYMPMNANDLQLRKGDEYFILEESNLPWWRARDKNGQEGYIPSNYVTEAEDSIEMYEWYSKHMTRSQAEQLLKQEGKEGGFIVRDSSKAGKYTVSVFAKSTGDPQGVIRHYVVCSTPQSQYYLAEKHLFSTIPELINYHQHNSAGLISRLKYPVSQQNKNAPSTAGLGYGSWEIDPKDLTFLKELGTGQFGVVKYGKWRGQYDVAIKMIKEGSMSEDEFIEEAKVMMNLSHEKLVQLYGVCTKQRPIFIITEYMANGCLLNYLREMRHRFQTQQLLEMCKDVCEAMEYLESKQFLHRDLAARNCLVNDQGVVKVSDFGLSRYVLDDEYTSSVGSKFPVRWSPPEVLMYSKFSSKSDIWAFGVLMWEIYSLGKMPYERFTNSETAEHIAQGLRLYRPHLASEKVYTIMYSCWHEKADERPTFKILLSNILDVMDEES
Method for BTK: (§1) protein kinases at a compound concentration of 1 µM. Measurements were performed in duplicates
(§2) and at the particular apparent ATP KM of each individual kinase employing the activity based Z’LYTE®
(§3) kinase assay of the SelectScreen® Kinase Profiling Services (ThermoFisher Scientific).
(§4) kinases at a compound concentration of 1 µM. Measurements were performed in duplicates and at
(§5) the particular apparent ATP KM of each individual kinase employing the activity based Z’LYTE® kinase
(§6) assay of the SelectScreen® Kinase Profiling Services (ThermoFisher Scientific).
Method for ITK: as §1, §2, §3, §4, §5, §6
Method for PRKCI (PKC iota): as §1, §2, §3, §4, §5, §6
Method for PRKCN (PKD3): as §1, §2, §3, §4, §5, §6
Method for PRKD2 (PKD2): as §1, §2, §3, §4, §5, §6

`C=CC(=O)Nc1ccc2c(c1)n(C1CCN(Cc3ccc(-c4nc5cc[nH]c(=O)c5cc4-c4ccccc4)cc3)CC1)c(=O)n2C` [24b]: the inhibition at 1 µM was 3% at PRKD2 (PKD2); 10% at PRKCN (PKD3); 12% at BTK; -9% at ITK; 3% on PRKCI (PKC iota).

For the compound `C=CC(=O)Nc1cccc(C(=O)NC2CCN(Cc3ccc(-c4nc5cc[nH]c(=O)c5cc4-c4ccccc4)cc3)CC2)c1` [30b], the inhibition at 1 µM at PRKD2 (PKD2) was 4%; on PRKCN (PKD3), 14%; on BTK, 22%; at ITK, 1%; on PRKCI (PKC iota) it was -9%.

As for `C=CC(=O)Nc1cc(NC(=O)NC2CCN(Cc3ccc(-c4nc5cc[nH]c(=O)c5cc4-c4ccccc4)cc3)CC2)ccc1Cl` [compound 27], the inhibition at 1 µM on PRKD2 (PKD2) was found to be 5%; at PRKCN (PKD3), 16%; at BTK, 10%; on ITK, 8%; at PRKCI (PKC iota), 5%.

Source of the values: publication PMC6430017, “Structural and chemical insights into the covalent-allosteric inhibition of the protein kinase Akt” (Chemical Science, 2019).
